How the values were obtained:
[1] = test system: intestinal epithelial cell lines T84; assay: Permeability for 4 kD FITC dextran (flux) across T84 monolayers; type: cell-based, human; conditions: for Permeability (Flux) Increased by IL-4: T84 monolayers, fatty acid 100 μM, 72 hr incubation, IL-4, 4 kDa FITC-dextran; for Effect on increase of permeability caused by cytokines (in words): incubations with cytokines (IL-4), 100 μM, 72 hr
Procedure: Monolayers (MC) of intestinal epithelial cell lines T84 (American Type Culture Collection (ATTC), Manassas, USA) were cultured on transwell filters (Corning, Costar BV, The Netherlands) allowing both mucosal and serosal sampling and stimulation of human intestinal epithelial cells. Two weeks post confluence the monolayers were incubated in the luminal compartment with polyunsaturated fatty acids DPA (7,10,13,16,19-docosapentaenoic acid, 22:5 n3), AA (arachidonic acid; 5,8,11,14-eicosatetraenoic acid), DHA (cis-4,7,10,13,16,19 docosahexaenoic acid), EPA (eicosapentaenoic acid) or control palmitic (C 16:0) acid (Palm) (Sigma, St. Louis, USA). The latter procedure was chosen to mimic the in vivo administration route of the dietary compounds. Cells were incubated with DPA, AA, DHA, EPA, or palmitic acid for 0, 24, 48 and 72 h at 100 μM.
(§1) Experiments were performed to evaluate basal barrier integrity and cytokine (IL-4) induced barrier disruption. The epithelial barrier function was determined by measuring the transepithelial resistance (TER, Ω.cm^2) by epithelial volt-ohm meter (EVOM; World Precision Instruments, Germany) and permeability for 4 kD FITC dextran (paracellular permeability marker, Sigma, USA). Epithelial permeability for 4 kDa FITC-dextran was determined as follows. Prior to dextran fluxes the medium was refreshed with culture medium without phenol red for one hour followed by addition of 5 μl (stock 100 mg/ml) 4 kDa FITC-dextran to the luminal compartment. After 60 min of incubation 100 μl sample was collected from the serosal compartment and the fluorescent signal measured at excitation wavelength 485 nm and emission 520 nm (FLUOstar Galaxy®, BMG Labtechnologies, USA). FITC-dextran fluxes were calculated as pmol FITC-dextran/cm^2/h. Statistical analyses were performed using the ANOVA (SPSS version 10).

[2] = test system: intestinal epithelial cell lines T84; assay: Transepithelial resistance (TER) of T84 monolayers; type: cell-based, human; conditions: for Resistance (TER) Disrupted by IL-4 / Resistance (TER) Basal: T84 monolayers, fatty acid 100 μM, 72 hr incubation; for Resistance (TER) Disrupted by IL-4: IL-4 mediated barrier disruption; for Effect on epithelial resistance (in words): both under basal and barrier disruptive conditions, 100 μM, 72 hr; for Effect on barrier integrity and epithelial paracellular permeability (in words): summary statement
Procedure: as §1, with “Monolayers (MC) of intestinal epithelial cell lines T84 (American Type Culture Collection (ATTC), Manassas, USA) were cultured on transwell filters (Corning, Costar BV, The Netherlands) allowing both mucosal and serosal sampling and stimulation of human intestinal epithelial cells. […] Louis, USA). The latter procedure was chosen to mimic the in vivo administration route of the dietary compounds. […] Experiments” for “Experiments”

[3] = test system: MUC-2 expression; conditions: MC T84 and CC T84; compared to propionate and butyrate
Source text: See also the examples in applicants' co-pending European application no. 04748674.1).

Compound	Permeability (Flux) Increased by IL-4 [1] [pmol FITC-dextran/cm^2/h]	Effect on increase of permeability caused by cytokines (in words) [1]	Resistance (TER) Disrupted by IL-4 [2]	Resistance (TER) Basal [2]	Effect on epithelial resistance (in words) [2]	Effect on barrier integrity and epithelial paracellular permeability (in words) [2]	Stimulation of MUC-2 expression (mucus production) [3]
CCCCCC=CCC=CCC=CCC=CCCCC(=O)O [AA, 5,8,11,14-eicosatetraenoic acid]	273 ± 76	effectively reduced	337 ± 13 Ω.cm^2	634 ± 29 Ω.cm^2	improve epithelial resistance	–	–
CCC=CCC=CCC=CCC=CCC=CC/C=C\CCC(=O)O [DHA, cis-4,7,10,13,16,19 docosahexaenoic acid]	304 ± 75	effectively reduced	328 ± 7 Ω.cm^2	584 ± 50 Ω.cm^2	improve epithelial resistance	–	–
CCC=CCC=CCC=CCC=CCC=CCCCCCC(=O)O [DPA, 7,10,13,16,19-docosapentaenoic acid]	216 ± 123	effectively reduced	368 ± 4 Ω.cm^2	605 ± 27 Ω.cm^2	improve epithelial resistance	effectively improves barrier integrity and reduces epithelial paracellular permeability	–
CC/C=C\C/C=C\C/C=C\C/C=C\C/C=C\CCCC(=O)O [EPA, eicosapentaenoic acid]	236 ± 145	–	375 ± 9 Ω.cm^2	584 ± 7 Ω.cm^2	–	–	–
CCCCCCCCCCCCCCCC(=O)O [Palmitic acid, palmitic acid]	646 ± 106	not	272 ± 11 Ω.cm^2	496 ± 50 Ω.cm^2	not effective	–	–
CC(=O)O [acetate]	–	–	–	–	–	–	more potent in stimulating MUC-2 expression
CCCCC/C=C\C/C=C\CCCCCCCC(=O)O [linoleic acid]	–	–	–	–	–	ineffective	–
